Key:
[1] = system: Human immunodeficiency virus 1; test: Dissociation constant was measured against HIV-1 RNA construct E (present in HIV-1 RRE IIB RNA region); N.B. = no measurable binding; format: functional
[2] = system: Human immunodeficiency virus 1; test: Dissociation constant was measured against HIV-1 RNA construct F (present in HIV-1 RRE IIB RNA region); N.B. = no measurable binding; format: functional, organism-based
[3] = system: Human immunodeficiency virus 1; test: Dissociation constant was measured against HIV-1 RNA construct C (present in HIV-1 RRE IIB RNA region); format: functional
[4] = system: Human immunodeficiency virus 1; test: Dissociation constant was measured against HIV-1 RNA construct D (present in HIV-1 RRE IIB RNA region); format: functional
[5] = system: Human immunodeficiency virus 1; test: Dissociation constant was measured against HIV-1 RNA construct A (present in HIV-1 RRE IIB RNA region); format: functional
[6] = system: Human immunodeficiency virus 1; test: Dissociation constant was measured against HIV-1 RNA construct G (present in HIV-1 RRE IIB RNA region); N.B. = no measurable binding; format: functional, organism-based
[7] = system: Human immunodeficiency virus 1; test: Dissociation constant was measured against HIV-1 RNA construct B (present in HIV-1 RRE IIB RNA region); format: functional
[8] = system: Human immunodeficiency virus 1; test: Dissociation constant was measured against HIV-1 RNA construct H (present in HIV-1 RRE IIB RNA region); N.B. = no measurable binding; format: functional, organism-based
[9] = system: Human immunodeficiency virus 1; test: Dissociation constant was measured against HIV-1 RNA construct I (present in HIV-1 RRE IIB RNA region); format: functional
[10] = system: Human immunodeficiency virus 1; test: Dissociation constant was measured against HIV-1 RNA construct J (present in HIV-1 RRE IIB RNA region); format: functional
[11] = system: Human immunodeficiency virus 1; test: Dissociation constant was measured against HIV-1 RNA construct K (present in HIV-1 RRE IIB RNA region); format: functional

Row | SMILES | Kd [1] | Kd [2] | Kd [3] | Kd [4] | Kd [5] | Kd [6] | Kd [7] | Kd [8] | Kd [9] | Kd [10] | Kd [11]
1 | Cc1ccc2ccc(NC(=O)CCN)nc2n1 | No binding | No binding | 2.9 µM | 3.2 µM | 1.4 µM | No binding | 2.4 µM | No binding | – | – | –
2 | Cc1ccc2ccc(NC(=O)CCNCCNCCC(=O)Nc3ccc4ccc(C)nc4n3)nc2n1 | – | – | – | – | – | – | – | – | 35.1 µM | 32.3 µM | 34.9 µM

Source: ChEMBL document CHEMBL1144309, “Specific recognition of napthyridine-based ligands toward guanine-containing bulges in RNA duplexes and RNA-DNA heteroduplexes” (Bioorg Med Chem Lett, 2005)
